Laboratory results taken from patent US20130065818A1, “Arylamide Compounds And Compositions And Uses Thereof” (POLYMEDIX, priority 2006, published 2013).
≈ marks a conversion by molar mass, not a printed value. Where two headings read alike, the source gives them in different places.

Legend:
Format in all cases: cell-based
[1] = tested on: Ciprofloxacin Susceptible (CS) S. aureus (CSSA); test: MIC of clinical ocular isolates (Example 1); conditions: Staphylococcus aureus; CSSA clinical ocular isolates (n=27)
[2] = tested on: Ciprofloxacin Resistant (CR) S. aureus (CRSA); test: MIC of clinical ocular isolates (Example 1); conditions: Staphylococcus aureus; CRSA clinical ocular isolates (n=28)
[3] = tested on: CS S. epidermidis (CSSE); test: MIC of clinical ocular isolates (Example 1); conditions: Staphylococcus epidermidis; CSSE clinical ocular isolates (n=26)
[4] = tested on: CR S. epidermidis (CRSE); test: MIC of clinical ocular isolates (Example 1); conditions: Staphylococcus epidermidis; CRSE clinical ocular isolates (n=26)
[5] = tested on: St. pneumoniae (SP); test: MIC of clinical ocular isolates (Example 1); conditions: Streptococcus pneumoniae; SP clinical ocular isolates (n=27)
[6] = tested on: St. viridans group (SV); test: MIC of clinical ocular isolates (Example 1); conditions: Streptococcus viridans
[7] = tested on: Moraxella Species (MS); test: MIC of clinical ocular isolates (Example 1); conditions: MS clinical ocular isolates (n=25)
[8] = tested on: H. influenzae (HI); test: MIC of clinical ocular isolates (Example 1); conditions: Haemophilus influenzae; HI clinical ocular isolates (n=26)
[9] = tested on: P. aeruginosa (PA); test: MIC of clinical ocular isolates (Example 1); conditions: Pseudomonas aeruginosa; PA clinical ocular isolates (n=26)
[10] = tested on: Serratia marcescens (SM); test: MIC of clinical ocular isolates (Example 1); conditions: SM clinical ocular isolates (n=27)
[11] = tested on: Fluoroquinolone-Resistant Methicillin-Resistant Staphylococcus aureus Strain K950; test: MIC characterization of strain K950; conditions: read-out: MIC (Minimum Inhibitory Concentration)
[12] = tested on: Haemophilus influenzae; test: MIC, 25 ocular isolates, broth microdilution (Example 8); conditions: for MIC / MIC50 / MIC90: Haemophilus influenzae
Procedure: HTM (Haemophilus Test Medium) in tubes was inoculated with 25 ocular isolates of Haemophilus influenzae plus two controls (Staphylococcus aureus and E. coli) and incubated at 37° C. overnight. Additionally, Mueller-Hinton Broth in tubes was inoculated with two controls (Staphylococcus aureus and E. coli) and incubated at 37° C. overnight on a shaker set at 250 rpm.
On the day of testing, a 640 μg/ml (1280 μg/ml for Serratia marcescens and Pseudomonas aeruginosa) concentration was prepared from a 1% stock solution in 0.01% acetic acid, 0.2% BSA in polypropylene tubes.
Serial doubling dilutions in 0.01% acetic acid, 0.2% BSA in 96 well polypropylene plates, which are used as reservoirs for the inoculation of the test plates, were carried out to obtain serial dilutions of test agents at 10 times the required test concentrations: 640, 320, 160, 80, 40, 20, 10, 5, 2.5, 1.25, and 0.625 μg/ml (1280, 640, 320, 160, 80, 40, 20, 10, 5, 2.5, and 1.25 μg/ml for Serratia marcescens and Pseudomonas aeruginosa).
Ten μl of diluted 10×test agents was added to each well of one row of the 96 well polypropylene plates from column 2 to column 12 (column 1 is a control for bacteria alone, with no peptide). Test agent concentrations in columns 2-12 were as follows: 64, 32, 16, 8, 4, 2, 1, 0.5, 0.25, 0.125, and 0.0625 μg/ml (128, 64, 32, 16, 8, 4, 2, 1, 0.5, 0.25, and 0.125 μg/ml for Serratia marcescens and Pseudomonas aeruginosa). The same peptide was in each of the 8 rows. One plate contained dilutions of one test agent and 8 bacterial isolates.
On the day of testing, the overnight bacterial broth cultures of Haemophilus species was diluted in 5 ml of trypticase soy broth to yield turbidity equal to a 0.5 McFarland standard. The final inoculum for MIC testing for Haemophilus species was achieved by placing 0.1 ml of the turbidity adjusted sample to 5 ml of HTM medium.
Ninety μl of the bacterial suspensions was dispensed in each well from column 1 to column 12. Each bacterial isolate was placed in one row of a 96 well polypropylene plate containing the test agents. The plates were placed on shaker at 15 minutes at room temperature, and then incubated at 37° C. overnight. MICs were determined visually as the lowest concentration of drug that inhibits visible bacterial growth.

[13] = tested on: K. pneumoniae Lab Strain KP10; test: MIC, laboratory strains (Example 8)
[14] = 25 ocular isolates, HTM medium, read-out: Median MIC
[15] = isolate 10 B1378, read-out: MIC
[16] = isolate 11 B1313, read-out: MIC
[17] = isolate 12 B1477, read-out: MIC
[18] = isolate 13 B1286, read-out: MIC
[19] = isolate 14 B1282, read-out: MIC
[20] = isolate 15 B1291, read-out: MIC
[21] = isolate 16 B1280, read-out: MIC
[22] = isolate 17 B1279, read-out: MIC
[23] = isolate 18 B1260, read-out: MIC
[24] = isolate 19 B1238, read-out: MIC
[25] = isolate 20 B1209, read-out: MIC
[26] = isolate 21 B1249, read-out: MIC
[27] = isolate 22 B1248, read-out: MIC
[28] = isolate 23 B1244, read-out: MIC
[29] = isolate 24 B1419, read-out: MIC
[30] = isolate 25 B1222, read-out: MIC
[31] = n=25 isolates, >64 replaced with 128
[32] = n=25 isolates, >64 replaced with 128, read-out: Median MIC

SMILES: N=C(N)NCCCCC(=O)Nc1cc(C(F)(F)F)cc(NC(=O)c2cc(C(=O)Nc3cc(C(F)(F)F)cc(NC(=O)CCCCNC(=N)N)c3SCCN)ncn2)c1SCCN [Oligomer 2]
- MIC50 [1]: 0.125 µg/mL
- MIC90 [1]: 0.25 µg/mL
- MIC50 [2]: 0.25 µg/mL
- MIC90 [2]: 0.25 µg/mL
- MIC50 [3]: 0.03 µg/mL
- MIC90 [3]: 0.03 µg/mL
- MIC50 [4]: 0.03 µg/mL
- MIC90 [4]: 0.03 µg/mL
- MIC50 [5]: 1 µg/mL
- MIC90 [5]: 2 µg/mL
- MIC50 [6]: 4 µg/mL
- MIC90 [6]: 32 µg/mL
- MIC50 [7]: 0.25 µg/mL
- MIC90 [7]: 0.5 µg/mL
- MIC50 [8]: 8 µg/mL
- MIC90 [8]: 16 µg/mL
- MIC50 [9]: 4 µg/mL
- MIC90 [9]: 8 µg/mL
- MIC50 [10]: 16 µg/mL
- MIC90 [10]: 32 µg/mL
- MIC [11]: 0.25 µg/mL (≈ 0.273 µM)

SMILES: N=C(N)NCCCCC(=O)Nc1cc(C(F)(F)F)cc(NC(=O)c2cc(C(=O)Nc3cc(C(F)(F)F)cc(NC(=O)CCCCNC(=N)N)c3O[C@@H]3CCNC3)ncn2)c1O[C@@H]1CCNC1 [Oligomer 4]
- MIC [12, 14]: 8 µg/mL (≈ 8.54 µM)
- MIC ([12]; isolate 1 B1359, read-out: MIC): 8 µg/mL (≈ 8.54 µM)
- MIC ([12]; isolate 2 B1346, read-out: MIC): 8 µg/mL (≈ 8.54 µM)
- MIC ([12]; isolate 3 B1345, read-out: MIC): 8 µg/mL (≈ 8.54 µM)
- MIC ([12]; isolate 4 B1343, read-out: MIC): 8 µg/mL (≈ 8.54 µM)
- MIC ([12]; isolate 5 B1338, read-out: MIC): 4 µg/mL (≈ 4.27 µM)
- MIC ([12]; isolate 6 B1332, read-out: MIC): 8 µg/mL (≈ 8.54 µM)
- MIC ([12]; isolate 7 B1331, read-out: MIC): 8 µg/mL (≈ 8.54 µM)
- MIC ([12]; isolate 8 B1330, read-out: MIC): 8 µg/mL (≈ 8.54 µM)
- MIC ([12]; isolate 9 B1379, read-out: MIC): 16 µg/mL (≈ 17.1 µM)
- MIC [12, 15]: 8 µg/mL (≈ 8.54 µM)
- MIC [12, 16]: 4 µg/mL (≈ 4.27 µM)
- MIC [12, 17]: 8 µg/mL (≈ 8.54 µM)
- MIC [12, 18]: 8 µg/mL (≈ 8.54 µM)
- MIC [12, 19]: 32 µg/mL (≈ 34.2 µM)
- MIC [12, 20]: 8 µg/mL (≈ 8.54 µM)
- MIC [12, 21]: 8 µg/mL (≈ 8.54 µM)
- MIC [12, 22]: 16 µg/mL (≈ 17.1 µM)
- MIC [12, 23]: 8 µg/mL (≈ 8.54 µM)
- MIC [12, 24]: 2 µg/mL (≈ 2.13 µM)
- MIC [12, 25]: 4 µg/mL (≈ 4.27 µM)
- MIC [12, 26]: 4 µg/mL (≈ 4.27 µM)
- MIC [12, 27]: 8 µg/mL (≈ 8.54 µM)
- MIC [12, 28]: 8 µg/mL (≈ 8.54 µM)
- MIC [12, 29]: 4 µg/mL (≈ 4.27 µM)
- MIC [12, 30]: 8 µg/mL (≈ 8.54 µM)
- MIC50 [12, 31]: 8 µg/mL (≈ 8.54 µM)
- MIC90 [12, 31]: 8 µg/mL (≈ 8.54 µM)
- MIC [12, 32]: 8 µg/mL (≈ 8.54 µM)
- Range of MICs [12, 31]: 2 to 32 µg/mL
- MIC [13]: 0.78 µg/mL (≈ 0.833 µM)
- MIC [11]: 0.5 µg/mL (≈ 0.534 µM)

SMILES: N=C(N)NCCCCC(=O)Nc1cc(C(F)(F)F)cc(NC(=O)c2cnc(C(=O)Nc3cc(C(F)(F)F)cc(NC(=O)CCCCNC(=N)N)c3SCCN)cn2)c1SCCN [Oligomer 5]
- MIC [12, 14]: 16 µg/mL (≈ 17.4 µM)
- MIC ([12]; isolate 1 B1359, read-out: MIC): > 64 µg/mL
- MIC ([12]; isolate 2 B1346, read-out: MIC): > 64 µg/mL
- MIC ([12]; isolate 3 B1345, read-out: MIC): > 64 µg/mL
- MIC ([12]; isolate 4 B1343, read-out: MIC): > 64 µg/mL
- MIC ([12]; isolate 5 B1338, read-out: MIC): 16 µg/mL (≈ 17.4 µM)
- MIC ([12]; isolate 6 B1332, read-out: MIC): 64 µg/mL (≈ 69.8 µM)
- MIC ([12]; isolate 7 B1331, read-out: MIC): > 64 µg/mL
- MIC ([12]; isolate 8 B1330, read-out: MIC): > 64 µg/mL
- MIC ([12]; isolate 9 B1379, read-out: MIC): 8 µg/mL (≈ 8.72 µM)
- MIC [12, 15]: 4 µg/mL (≈ 4.36 µM)
- MIC [12, 16]: 2 µg/mL (≈ 2.18 µM)
- MIC [12, 17]: 4 µg/mL (≈ 4.36 µM)
- MIC [12, 18]: 2 µg/mL (≈ 2.18 µM)
- MIC [12, 19]: 8 µg/mL (≈ 8.72 µM)
- MIC [12, 20]: 16 µg/mL (≈ 17.4 µM)
- MIC [12, 21]: 16 µg/mL (≈ 17.4 µM)
- MIC [12, 22]: 64 µg/mL (≈ 69.8 µM)
- MIC [12, 23]: 16 µg/mL (≈ 17.4 µM)
- MIC [12, 24]: 8 µg/mL (≈ 8.72 µM)
- MIC [12, 25]: 8 µg/mL (≈ 8.72 µM)
- MIC [12, 26]: 16 µg/mL (≈ 17.4 µM)
- MIC [12, 27]: 4 µg/mL (≈ 4.36 µM)
- MIC [12, 28]: 32 µg/mL (≈ 34.9 µM)
- MIC [12, 29]: 32 µg/mL (≈ 34.9 µM)
- MIC [12, 30]: > 64 µg/mL
- MIC50 [12, 31]: 16 µg/mL (≈ 17.4 µM)
- MIC90 [12, 31]: 128 µg/mL (≈ 140 µM)
- MIC [12, 32]: 16 µg/mL (≈ 17.4 µM)
- Range of MICs [12, 31]: 2 to 128 µg/mL
- MIC [13]: 1.56 µg/mL (≈ 1.7 µM)
